Calls of active or inactive are those of the source.
Legend:
[1] = biological target: DNA repair and recombination protein RAD54-like (Homo sapiens, UniProt Q92698); test: inhibitors of human RAD54 branch migration, confirmation, biochemical, fluorescence, cherry-picked samples, dose series (AID 651657); format: functional
[2] = biological target: T1, DNA repair protein RAD52 homolog (Homo sapiens, UniProt P43351); format: functional, biochemical
T1 sequence (P43351 whole entry): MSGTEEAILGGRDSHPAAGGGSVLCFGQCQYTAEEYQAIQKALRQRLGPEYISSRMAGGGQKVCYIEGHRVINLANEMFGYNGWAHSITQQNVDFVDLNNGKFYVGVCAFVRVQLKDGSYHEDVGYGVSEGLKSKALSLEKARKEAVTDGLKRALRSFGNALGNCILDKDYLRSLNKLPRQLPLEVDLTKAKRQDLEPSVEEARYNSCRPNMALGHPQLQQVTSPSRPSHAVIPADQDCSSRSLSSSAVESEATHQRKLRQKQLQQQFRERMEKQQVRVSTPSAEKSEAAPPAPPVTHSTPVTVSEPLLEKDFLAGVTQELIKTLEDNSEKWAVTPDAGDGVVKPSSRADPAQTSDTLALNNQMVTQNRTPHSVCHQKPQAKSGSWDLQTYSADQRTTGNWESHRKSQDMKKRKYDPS

[3] = biological target: Photoreceptor-specific nuclear receptor (Homo sapiens, UniProt Q9Y5X4); format: functional, cell-based;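 further: CHO-S cells with Gal4-NCOR and VP16-NR2E3 two-hybrid luciferase reporter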
[4] = cytotoxicity toward NIH3T3 fibroblasts, dose response, counter-screen, cell-based, ATP luminescence, mouse fibroblasts (AID 2010); format: functional;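 further: cells exposed to compound for about 90 hours before reading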
[5] = inhibitors of intracellular T. cruzi replication, confirmation, NIH3T3 host cells, beta-gal luminescence (AID 2044); format: functional, cell-based;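 further: intracellular parasites grown in NIH/3T3 mouse fibroblasts as host cells; luminescent beta-galactosidase reporter signal from transgenic T. cruzi replicating inside host cells; inhibitors lower the luminescence signal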
[6] = biological target: Melanocortin receptor 4 (Homo sapiens, UniProt P32245); format: functional, cell-based;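 further: Cell-based assay with luminescence read-out, confirmatory dose-response testing for agonist activity of biased ligands at MC4R; human U2OS cells with tagged receptor and beta-arrestin; potency of agonists that increase receptor coupling to beta-arrestin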
[7] = biological target: Arf-GAP with SH3 domain, ANK repeat and PH domain-containing protein 1 (Homo sapiens, UniProt Q9ULH1); format: functional;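 further: biochemical fluorescence polarization dose–response screen measuring inhibition of ASAP1; ASAP1 GAP domain stimulating GTP hydrolysis by truncated human ARF1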
[8] = Luminescence Cell-Based Dose Response HTS to Identify Inhibitors of 5'UTR Stem-Loop Driven Prion Protein mRNA Translation in H4 Neuroglioblastoma Cells. [Related pubchem assays: 1827 (Project Summary), 1813 (Primary HTS)]; format: functional
[9] = inhibitors of SNCA 5'UTR-driven reporter translation, confirmation, H4 neuroglioma cells, luminescence (AID 1988); format: functional, cell-based
[10] = inhibitors of firefly luciferase expression or activity, dose response, H4 neuroglioma cells, luminescence (AID 1990); format: functional, cell-based
[11] = Luminescence Cell-Based Dose Retest to Confirm Inhibitors of Cancer Stem Cells. [Related pubchem assays (depositor defined):AID2717, AID2721]; format: functional; conditions: Homo sapiens
[12] = inhibitors of PGC1a acetylation in cells, dose response, cell-based, cherry-picked samples (AID 720514); format: functional;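 further: potency may reflect raised or lowered acetylation signal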
[13] = test system: HEK293; test: inhibitors of LMP1-driven NF-kB reporter, dose response, cell-based, HEK293, luciferase, cherry-pick (AID 588343); format: functional; conditions: Homo sapiens
[14] = biological target: Paired box protein Pax-8 (Homo sapiens, UniProt Q06710); test: inhibitors of PAX8-driven TPO luciferase reporter, dose response, RMG-I cells, cherry-pick (AID 687027); format: functional, cell-based;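 further: luciferase reporter driven by Pax8 target thyroperoxidase promoter measured by SteadyGlo luminescence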
[15] = Fluorescence-based cell-based high throughput dose response assay for inhibitors of the interaction of nucleotide-binding oligomerization domain containing 2 (NOD2) and the receptor-interacting serine-threonine kinase 2 (RIPK2).; format: functional; conditions: Homo sapiens
[16] = biological target: Hepatocyte nuclear factor 4-alpha (Homo sapiens, UniProt P41235); format: functional, cell-based;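 further: biochemical luminescence-based dose-response counterscreen measuring inhibition of HNF4 dimerization, run alongside a screen for blockers of ABHD5–perilipin-5 interaction; split luciferase complementation of HNF4 fusion proteins in cell lysate measuring dimerization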
[17] = intracellular Trypanosoma cruzi inhibitors in host cells – cell-based, plate reader, cherry-pick samples, set 3, dose response (AID 651818); format: functional;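 further: compounds incubated with infected cells for about four days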
[18] = biological target: Nuclear receptor subfamily 5 group A member 2 (Homo sapiens, UniProt O00482); format: functional, cell-based;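 further: HEK293T cells transfected with LRH-1 and a StAR promoter luciferase reporter; potency for inhibitors that lower LRH-1 driven reporter light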
[19] = biological target: Steroidogenic factor 1 (Homo sapiens, UniProt Q13285); test: Counterscreen for inverse agonists of the liver receptor homolog-1 (LRH-1; NR5A2): Luminescence-based cell-based high throughput dose response assay to identify inverse agonists of the Steroidogenic Factor 1 Nuclear Receptor (SF1; NR5A1).; format: functional
[20] = StAR promoter reporter inhibition counter-screen, dose response, counter-screen for LRH-1 inverse agonist project, cell-based, luminescence, luciferase reporter (AID 651969); format: functional
[21] = ARNT/TACC3 interaction disruptors, potency, confirmation, biochemical, AlphaScreen, cherry-picked samples (AID 651703); format: functional, Homo sapiens;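 further: His-tagged ARNT PAS-B domain paired with GST-TACC3 E629A dimer coactivator fragment; potency of inhibitors that break up the complex and lower AlphaScreen signal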
[22] = biological target: T2, Apoptotic protease-activating factor 1 (Homo sapiens, UniProt O14727); format: functional
T2 sequence (O14727 whole entry): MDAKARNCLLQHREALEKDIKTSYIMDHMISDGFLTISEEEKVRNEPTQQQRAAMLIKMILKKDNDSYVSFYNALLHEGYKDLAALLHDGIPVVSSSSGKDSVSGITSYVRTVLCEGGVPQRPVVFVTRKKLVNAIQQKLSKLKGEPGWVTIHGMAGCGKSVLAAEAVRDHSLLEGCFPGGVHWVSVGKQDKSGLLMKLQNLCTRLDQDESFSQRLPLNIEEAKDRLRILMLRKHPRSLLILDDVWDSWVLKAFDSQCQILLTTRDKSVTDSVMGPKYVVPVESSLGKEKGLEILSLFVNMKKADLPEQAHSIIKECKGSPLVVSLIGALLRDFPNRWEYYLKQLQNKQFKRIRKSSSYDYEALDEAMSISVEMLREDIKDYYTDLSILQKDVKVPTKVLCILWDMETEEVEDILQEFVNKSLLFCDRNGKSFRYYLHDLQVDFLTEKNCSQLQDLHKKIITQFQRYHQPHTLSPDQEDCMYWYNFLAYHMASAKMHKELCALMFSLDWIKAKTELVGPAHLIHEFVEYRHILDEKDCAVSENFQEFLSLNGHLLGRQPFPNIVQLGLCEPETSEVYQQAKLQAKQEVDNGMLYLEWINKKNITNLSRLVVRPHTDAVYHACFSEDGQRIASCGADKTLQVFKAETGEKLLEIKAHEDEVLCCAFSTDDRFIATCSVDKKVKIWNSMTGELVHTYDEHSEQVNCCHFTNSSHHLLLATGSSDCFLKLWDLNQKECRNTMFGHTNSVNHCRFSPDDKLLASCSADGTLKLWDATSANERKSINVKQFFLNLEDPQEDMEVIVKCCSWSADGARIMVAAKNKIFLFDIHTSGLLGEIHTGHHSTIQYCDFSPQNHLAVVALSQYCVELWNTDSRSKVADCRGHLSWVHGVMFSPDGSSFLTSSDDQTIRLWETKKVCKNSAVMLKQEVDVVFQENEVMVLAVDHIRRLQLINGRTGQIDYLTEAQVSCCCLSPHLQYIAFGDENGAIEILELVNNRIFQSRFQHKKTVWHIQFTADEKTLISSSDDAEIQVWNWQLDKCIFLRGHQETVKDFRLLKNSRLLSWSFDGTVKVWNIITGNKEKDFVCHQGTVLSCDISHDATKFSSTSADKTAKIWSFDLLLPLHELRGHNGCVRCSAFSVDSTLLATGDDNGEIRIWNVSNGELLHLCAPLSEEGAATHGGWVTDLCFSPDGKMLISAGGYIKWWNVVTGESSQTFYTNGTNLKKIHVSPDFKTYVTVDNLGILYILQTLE

[23] = test system: H9c2; test: cells; format: functional, cell-based; conditions: Rattus norvegicus, H9c2, Myocardium;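 further: confirmatory concentration-response retest of ultra-high-throughput screening hits for modulation of myocardial damage; cell death induced by hydrogen peroxide oxidative stress; compound pretreatment for 60 min then peroxide exposure for 2 h; potency is for protecting the cells against peroxide damage rather than for killing them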
[24] = test system: Vero; test: Vero cell toxicity, dose response, cytotoxicity control, plate reader, cherry-pick samples (AID 687020); format: functional, cell-based; conditions: Chlorocebus sabaeus
[25] = test system: CHO; test: cytotoxicity in TLR9-MyD88 CHO cells, dose response, cytotoxicity control for TLR9-MyD88 binding inhibitor project, cell-based, luminescence (AID 588339); format: functional, hamster; conditions: Cricetulus griseus;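 further: CHO cells stably coexpressing TLR9 and MyD88 fusions from primary screen; compound exposure lasted 48 hours before viability readout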
[26] = biological target: Beta Lactamase (Pseudomonas aeruginosa, UniProt Q932Y6); test: beta-lactamase reporter inhibitor potency, dose response, artefact control for TLR9-MyD88 binding inhibitor project, BLA reporter cells, FRET fluorescence (AID 588341); format: cell-based;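 further: cell based assay in CHO-K1 cells stably expressing beta-lactamase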
[27] = biological target: T3, Methionyl-tRNA synthetase, putative (Trypanosoma brucei brucei, UniProt Q38C91); format: functional, Trypanosoma brucei brucei strain 927/4 GUTat10.1
T3 sequence (Q38C91 whole entry): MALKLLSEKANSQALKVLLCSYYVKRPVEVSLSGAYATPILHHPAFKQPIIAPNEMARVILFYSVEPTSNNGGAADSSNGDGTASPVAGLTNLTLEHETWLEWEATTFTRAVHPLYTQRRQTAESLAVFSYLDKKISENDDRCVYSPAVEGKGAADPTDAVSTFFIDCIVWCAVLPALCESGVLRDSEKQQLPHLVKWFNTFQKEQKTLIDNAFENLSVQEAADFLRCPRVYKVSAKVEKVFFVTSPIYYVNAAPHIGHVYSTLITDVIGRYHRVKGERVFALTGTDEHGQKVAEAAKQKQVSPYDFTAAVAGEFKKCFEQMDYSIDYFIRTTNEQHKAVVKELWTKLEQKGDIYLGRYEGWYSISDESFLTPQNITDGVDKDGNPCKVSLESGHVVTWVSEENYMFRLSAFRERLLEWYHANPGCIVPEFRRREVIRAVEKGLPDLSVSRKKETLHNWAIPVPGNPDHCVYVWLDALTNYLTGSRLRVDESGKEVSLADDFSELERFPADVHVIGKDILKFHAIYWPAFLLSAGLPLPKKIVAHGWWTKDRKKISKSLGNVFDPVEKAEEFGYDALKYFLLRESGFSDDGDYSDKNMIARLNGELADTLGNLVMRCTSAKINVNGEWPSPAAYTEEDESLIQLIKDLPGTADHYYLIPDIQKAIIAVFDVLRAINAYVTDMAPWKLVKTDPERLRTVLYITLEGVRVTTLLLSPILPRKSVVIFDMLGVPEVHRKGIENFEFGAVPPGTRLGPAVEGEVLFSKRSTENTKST

[28] = biological target: T3, Methionyl-tRNA synthetase, putative; format: functional, Trypanosoma brucei brucei strain 927/4 GUTat10.1; remark: listed apart in the source
[29] = biological target: Heat shock protein HSP 90-alpha (Homo sapiens, UniProt P07900); format: functional, organism-based
[30] = Counterscreen for inhibitors of Trypanosoma brucei methionyl tRNA synthetase (MetRS): Luminescence-based cell-based high throughput dose response assay to identify compounds that are cytotoxic to Jurkat human T lymphocyte cells.; format: functional
[31] = miR-122 activators in hepatoma reporter cells, dose response, cell-based, Huh7 psiCHECK-miR122, Renilla luciferase, cherry-picked (AID 651956); format: functional;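 further: huh7 hepatoma cells stably carrying a psiCHECK-2 miR-122 sensor plasmid; renilla luciferase signal reporting endogenous miR-122 activity after 48 h compound exposure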

Melanocortin receptor 4, sequence (P32245 whole entry, the tested form may be a part): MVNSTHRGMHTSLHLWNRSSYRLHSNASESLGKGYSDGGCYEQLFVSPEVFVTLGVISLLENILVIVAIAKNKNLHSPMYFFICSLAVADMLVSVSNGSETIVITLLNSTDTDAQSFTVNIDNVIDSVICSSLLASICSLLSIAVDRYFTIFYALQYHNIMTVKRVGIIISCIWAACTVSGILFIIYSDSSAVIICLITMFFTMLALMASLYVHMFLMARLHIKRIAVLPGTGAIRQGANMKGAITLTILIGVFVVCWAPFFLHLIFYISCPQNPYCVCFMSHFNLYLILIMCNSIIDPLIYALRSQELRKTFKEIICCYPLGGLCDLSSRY
Hepatocyte nuclear factor 4-alpha, sequence (P41235 whole entry, the tested form may be a part): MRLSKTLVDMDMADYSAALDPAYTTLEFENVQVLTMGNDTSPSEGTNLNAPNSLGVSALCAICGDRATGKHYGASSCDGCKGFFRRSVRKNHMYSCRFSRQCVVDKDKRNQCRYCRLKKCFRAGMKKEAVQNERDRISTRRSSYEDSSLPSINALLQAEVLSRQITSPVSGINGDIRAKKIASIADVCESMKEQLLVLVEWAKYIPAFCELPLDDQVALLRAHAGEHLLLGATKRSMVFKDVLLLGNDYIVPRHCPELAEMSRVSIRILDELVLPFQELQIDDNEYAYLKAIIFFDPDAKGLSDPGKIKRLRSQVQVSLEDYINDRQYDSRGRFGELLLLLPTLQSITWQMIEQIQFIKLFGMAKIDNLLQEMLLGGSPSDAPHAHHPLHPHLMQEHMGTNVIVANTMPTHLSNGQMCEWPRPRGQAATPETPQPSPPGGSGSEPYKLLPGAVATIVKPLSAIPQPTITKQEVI
Steroidogenic factor 1, sequence (Q13285 whole entry): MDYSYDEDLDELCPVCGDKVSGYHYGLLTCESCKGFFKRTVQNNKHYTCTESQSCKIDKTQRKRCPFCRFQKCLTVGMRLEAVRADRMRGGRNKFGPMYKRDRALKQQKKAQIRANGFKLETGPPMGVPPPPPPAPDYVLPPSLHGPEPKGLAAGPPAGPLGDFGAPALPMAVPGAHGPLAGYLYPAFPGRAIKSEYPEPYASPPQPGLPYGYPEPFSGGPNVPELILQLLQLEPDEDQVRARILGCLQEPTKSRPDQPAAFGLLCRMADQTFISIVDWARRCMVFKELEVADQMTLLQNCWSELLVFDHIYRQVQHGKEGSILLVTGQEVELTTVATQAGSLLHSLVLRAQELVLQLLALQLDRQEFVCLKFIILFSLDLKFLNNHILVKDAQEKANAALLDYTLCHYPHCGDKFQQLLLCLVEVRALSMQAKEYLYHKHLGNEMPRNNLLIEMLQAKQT
Photoreceptor-specific nuclear receptor, sequence (Q9Y5X4 whole entry, the tested form may be a part): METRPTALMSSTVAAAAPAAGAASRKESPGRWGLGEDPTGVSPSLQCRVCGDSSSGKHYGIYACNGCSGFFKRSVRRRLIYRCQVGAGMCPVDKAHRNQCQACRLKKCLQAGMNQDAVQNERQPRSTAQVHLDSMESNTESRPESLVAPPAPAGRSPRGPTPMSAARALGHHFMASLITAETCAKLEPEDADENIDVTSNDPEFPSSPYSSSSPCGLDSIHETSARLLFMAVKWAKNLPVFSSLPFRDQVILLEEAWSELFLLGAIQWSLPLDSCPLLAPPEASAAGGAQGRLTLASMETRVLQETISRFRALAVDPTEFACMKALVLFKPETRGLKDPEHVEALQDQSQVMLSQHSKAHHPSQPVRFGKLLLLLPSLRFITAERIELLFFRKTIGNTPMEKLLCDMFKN
Nuclear receptor subfamily 5 group A member 2, sequence (O00482 whole entry): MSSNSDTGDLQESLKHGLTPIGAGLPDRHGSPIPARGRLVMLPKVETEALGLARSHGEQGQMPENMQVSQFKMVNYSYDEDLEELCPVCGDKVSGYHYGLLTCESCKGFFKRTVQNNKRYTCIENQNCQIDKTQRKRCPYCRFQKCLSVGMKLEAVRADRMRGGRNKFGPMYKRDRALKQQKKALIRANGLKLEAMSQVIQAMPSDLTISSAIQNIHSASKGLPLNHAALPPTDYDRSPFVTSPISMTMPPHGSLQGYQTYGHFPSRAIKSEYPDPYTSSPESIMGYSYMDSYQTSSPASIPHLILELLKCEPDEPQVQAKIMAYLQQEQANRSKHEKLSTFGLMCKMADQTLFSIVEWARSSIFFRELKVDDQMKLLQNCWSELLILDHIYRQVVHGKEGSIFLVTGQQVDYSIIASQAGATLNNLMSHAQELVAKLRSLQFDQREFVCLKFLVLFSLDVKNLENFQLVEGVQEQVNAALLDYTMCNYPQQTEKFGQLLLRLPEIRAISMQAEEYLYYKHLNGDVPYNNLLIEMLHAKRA
DNA repair and recombination protein RAD54-like, sequence (Q92698 whole entry): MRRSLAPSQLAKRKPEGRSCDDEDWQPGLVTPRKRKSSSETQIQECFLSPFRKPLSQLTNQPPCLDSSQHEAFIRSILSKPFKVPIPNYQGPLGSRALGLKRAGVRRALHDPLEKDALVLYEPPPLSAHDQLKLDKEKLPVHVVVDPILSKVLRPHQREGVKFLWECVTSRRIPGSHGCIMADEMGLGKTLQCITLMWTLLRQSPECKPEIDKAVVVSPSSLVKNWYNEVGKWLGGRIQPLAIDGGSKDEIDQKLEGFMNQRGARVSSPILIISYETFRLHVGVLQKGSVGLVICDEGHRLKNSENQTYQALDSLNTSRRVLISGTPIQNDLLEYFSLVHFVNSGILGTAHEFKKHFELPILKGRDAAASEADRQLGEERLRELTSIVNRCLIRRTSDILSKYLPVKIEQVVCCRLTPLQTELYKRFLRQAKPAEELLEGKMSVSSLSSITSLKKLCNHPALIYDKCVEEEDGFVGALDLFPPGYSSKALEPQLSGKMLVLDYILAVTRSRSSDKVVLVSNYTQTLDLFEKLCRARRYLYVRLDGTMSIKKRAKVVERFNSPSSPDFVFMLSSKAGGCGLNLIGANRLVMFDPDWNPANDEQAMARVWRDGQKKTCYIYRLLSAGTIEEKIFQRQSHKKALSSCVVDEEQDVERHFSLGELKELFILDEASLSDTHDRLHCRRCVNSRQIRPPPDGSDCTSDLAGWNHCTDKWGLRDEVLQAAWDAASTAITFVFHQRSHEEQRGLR
Beta Lactamase, sequence (Q932Y6 whole entry): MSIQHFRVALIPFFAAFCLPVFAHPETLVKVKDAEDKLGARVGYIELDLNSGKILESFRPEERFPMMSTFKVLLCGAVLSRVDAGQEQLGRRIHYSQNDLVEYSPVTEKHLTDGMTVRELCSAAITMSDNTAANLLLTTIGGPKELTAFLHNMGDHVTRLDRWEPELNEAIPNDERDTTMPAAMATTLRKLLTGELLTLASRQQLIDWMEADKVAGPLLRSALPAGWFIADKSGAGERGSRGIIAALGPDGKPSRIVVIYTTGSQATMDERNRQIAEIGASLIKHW
Arf-GAP with SH3 domain, ANK repeat and PH domain-containing protein 1, sequence (Q9ULH1 whole entry, the tested form may be a part): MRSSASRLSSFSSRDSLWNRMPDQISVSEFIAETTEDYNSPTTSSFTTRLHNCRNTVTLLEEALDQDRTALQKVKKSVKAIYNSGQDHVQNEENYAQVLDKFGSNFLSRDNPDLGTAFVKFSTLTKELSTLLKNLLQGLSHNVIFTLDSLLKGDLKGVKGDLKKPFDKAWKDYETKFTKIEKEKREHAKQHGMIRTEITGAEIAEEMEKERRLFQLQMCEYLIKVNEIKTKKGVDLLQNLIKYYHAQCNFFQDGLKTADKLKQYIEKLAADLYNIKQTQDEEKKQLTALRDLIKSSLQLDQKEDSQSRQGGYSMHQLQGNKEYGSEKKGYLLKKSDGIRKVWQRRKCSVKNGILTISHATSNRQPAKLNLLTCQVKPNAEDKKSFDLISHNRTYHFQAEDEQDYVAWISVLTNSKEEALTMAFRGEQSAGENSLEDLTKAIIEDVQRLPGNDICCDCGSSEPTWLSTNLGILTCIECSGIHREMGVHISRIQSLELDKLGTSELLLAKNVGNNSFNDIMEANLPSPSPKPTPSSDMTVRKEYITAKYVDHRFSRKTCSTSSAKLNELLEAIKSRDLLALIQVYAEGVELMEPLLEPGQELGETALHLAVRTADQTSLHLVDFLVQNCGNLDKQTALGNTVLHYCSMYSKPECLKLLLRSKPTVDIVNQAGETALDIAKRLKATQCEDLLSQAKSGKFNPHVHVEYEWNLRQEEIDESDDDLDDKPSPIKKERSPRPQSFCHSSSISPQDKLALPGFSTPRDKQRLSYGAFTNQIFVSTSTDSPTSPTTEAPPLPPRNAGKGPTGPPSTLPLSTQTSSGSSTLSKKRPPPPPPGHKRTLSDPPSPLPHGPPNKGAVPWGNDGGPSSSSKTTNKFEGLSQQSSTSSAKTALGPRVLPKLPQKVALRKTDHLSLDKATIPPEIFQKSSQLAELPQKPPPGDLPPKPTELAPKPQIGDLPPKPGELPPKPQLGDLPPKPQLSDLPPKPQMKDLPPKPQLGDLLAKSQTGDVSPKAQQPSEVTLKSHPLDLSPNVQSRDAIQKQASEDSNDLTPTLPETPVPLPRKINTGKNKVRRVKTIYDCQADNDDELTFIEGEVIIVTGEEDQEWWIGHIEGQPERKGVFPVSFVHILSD
Paired box protein Pax-8, sequence (Q06710 whole entry, the tested form may be a part): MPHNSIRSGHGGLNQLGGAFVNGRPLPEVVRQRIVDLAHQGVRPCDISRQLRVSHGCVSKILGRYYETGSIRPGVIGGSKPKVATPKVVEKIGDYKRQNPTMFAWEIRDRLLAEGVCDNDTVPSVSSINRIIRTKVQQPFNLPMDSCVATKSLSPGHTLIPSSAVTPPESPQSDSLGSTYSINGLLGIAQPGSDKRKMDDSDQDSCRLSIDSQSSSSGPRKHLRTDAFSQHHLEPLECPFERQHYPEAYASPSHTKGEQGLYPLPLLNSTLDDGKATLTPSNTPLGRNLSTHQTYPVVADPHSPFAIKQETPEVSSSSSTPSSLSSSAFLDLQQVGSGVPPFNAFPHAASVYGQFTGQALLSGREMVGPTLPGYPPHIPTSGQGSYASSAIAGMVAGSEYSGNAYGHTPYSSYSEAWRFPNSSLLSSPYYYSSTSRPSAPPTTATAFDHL

CN(C)CCCNc1nc2cc(-c3ccccc3)sc2c(=O)n1C
AC50 [1]: 40.3 µM (active) | AC50 [2]: 10.8 µM (active)

C=CC[n+]1c(-c2ccc(Cl)cc2Cl)csc1Nc1ccc(NC(C)=O)cc1
IC50 [3]: 2.75 µM (active)

Cc1ccc2sc(N(CCCN(C)C)C(=O)CN3C(=O)c4ccccc4C3=O)nc2c1C
EC50 [4]: > 60 µM (not active) | EC50 [5]: 225 nM (active) | EC50 [6]: > 89.2 µM (inactive) | AC50 [2]: 13.8 µM (active)

NS(=O)(=O)c1ccc(CCNc2nc3c(-c4cccc(F)c4)nnn3c3ccccc23)cc1
IC50 [7]: 11.2 µM (inactive) | EC50 [8]: > 120 µM (not active) | EC50 [9]: > 120 µM (not active) | EC50 [10]: > 120 µM (not active)

COCc1nnc(NC(=O)c2ccc(S(=O)(=O)N(CC(C)C)CC(C)C)cc2)o1
IC50 [3]: 8.81 µM (active)

CC12CCC3C(CC=C4CC(O)CCC43C)C1C/C(=C\c1ccccc1F)C2=O (stereo not drawn)
AC50 [11]: 2.76 µM (active) | EC50 [6]: > 89.2 µM (inactive)

C#CCN(C[C@@H]1[C@@H](OC(=O)NCc2ccccc2F)[C@@H](OC(=O)NCc2ccccc2F)Cn2c(=O)ccc(=O)n21)S(=O)(=O)c1ccc(C)cc1
AC50 [12]: 2.58 µM (active) | AC50 [13]: 7.17 µM (active) | AC50 [14]: 5.52 µM (active) | IC50 [15]: 9.77 µM (active) | IC50 [16]: 8.93 µM (active)

C[C@@H]1CN([C@H](C)CO)C(=O)Cc2cc(NS(=O)(=O)c3cccs3)ccc2O[C@@H]1CN(C)S(=O)(=O)c1ccc(Cl)cc1
AC50 [17]: 4.11 µM (active)

O=C(COC(=O)c1ccc(=O)n(Cc2ccccc2)n1)Nc1ccc2c(c1)OCCO2
IC50 [18]: 35.9 µM (inactive) | IC50 [19]: 35.9 µM (inactive) | IC50 [20]: 35.9 µM (inactive)

CN1CCN(c2nc(-c3ccccn3)nc3ccccc23)CC1
AC50 [1]: 53.8 µM (active)

Cc1ccc(S(=O)(=O)N(C)C[C@@H]2Oc3c(NC(=O)CCCCCC(=O)Nc4ccccc4N)cccc3C(=O)N([C@H](C)CO)C[C@@H]2C)cc1
AC50 [17]: 6.27 µM (active)

CC(C)NC(=O)Nc1ccc2c(c1)CC(=O)N([C@H](C)CO)C[C@@H](C)[C@@H](CN(C)Cc1ccc(Oc3ccccc3)cc1)O2
AC50 [21]: 132 µM (active)

COc1ccc2c(c1)Cc1sc(NC(=O)c3ccco3)nc1-2
IC50 [22]: 45.8 µM (active)

COc1cccc(NC(=O)COc2cccc3c2CCNC3=O)c1
IC50 [23]: > 79 µM (inactive) | AC50 [24]: 37.2 µM (active)

C=CCN1C=C2C(=O)C(C)(OC(=O)CCC(=O)OC)C(=O)C=C2C=C1C1CC1 (stereo not drawn)
IC50 [22]: 39.3 µM (active)

O=[N+]([O-])c1ccc(N/N=C/C=C/c2ccco2)cc1
IC50 [25]: > 49.8 µM (inactive) | IC50 [26]: 4.19 µM (active)

O=C(NCc1ccccc1)C(c1ccccc1F)n1c(=O)c(-c2ccco2)nc2ccccc21 (stereo not drawn)
IC50 [16]: 2.24 µM (active)

Cc1ccc(C)c(NC(=O)CN2C(=O)C3CC=CCC3C2=O)c1 (stereo not drawn)
AC50 [24]: 35.8 µM (active)

Clc1ccc(COC(Cn2ccnc2)c2ccc(Cl)cc2Cl)c(Cl)c1 (stereo not drawn) [MICONAZOLE]
IC50 [27]: 11.7 µM (inactive) | IC50 [28]: 12.9 µM (inactive) | AC50 [29]: < 195 nM (active) | IC50 [30]: 33 µM (inactive)

O=C(O)CSc1cccc2cccnc12
AC50 [21]: 74.5 µM (active)

COc1ccc(NC(=O)CS(=O)(=O)c2ccc(C)cc2)c(OC)c1
IC50 [18]: 12 µM (inactive) | IC50 [19]: 10 µM (inactive) | IC50 [20]: 35.9 µM (inactive)

COc1ccc(S(=O)(=O)N(C)C[C@@H]2Oc3cc(-c4cccc(F)c4)ccc3S(=O)(=O)N([C@@H](C)CO)C[C@H]2C)cc1
AC50 [31]: 3.72 µM (active)
